The text below walks through data of patent US11123354B2, “Method for the treatment of osteoarthritis” (ABIOGEN PHARMA S.P.A., priority 2016, dated 2021).

The subject of series [1] is OA rats (bilateral anterior cruciate ligament surgical resection). Description: Histopathological evaluation (modified Mankin score), OA rats by anterior cruciate ligament resection, monthly treatment. Conditions: 4 monthly i.a. doses, scale 0 (normal) to 15 (seriously damaged). Type of series: in vivo, Sprague Dawley rats. As for the experimental part: (§1) In this study, the efficacy of a treatment performed by monthly intra-articular administration of sodium chlodronate on male “Sprague Dawley” rats affected by OA was evaluated. The treatment involved 4 monthly doses of sodium chlodronate, followed by one month of follow-up.
(§2) In the experimental model, OA was induced in rats by bilateral anterior cruciate ligament surgical resection in both hind limbs.
(§3) A volume of 50 μL of treatment solution, having a pH of about 4.5, as measured just before administration, was injected into the intra-articular cavity of each knee.
(§4) The study included 5 treatment groups, each consisting of 10 male rats, specifically two treatment groups consisting of OA rats, on which chlodronate doses of 8 and 12 mg/ml, corresponding to 0.4 and 0.6 mg/rat, were tested, and remaining three groups represented by untreated OA rats, operated but untreated Sham rats, and rats receiving placebo alone.
(§5) During the treatment period, the animals were regularly checked in relation to the increase in body mass, food intake and general health conditions. Clinical and hematological analyses were performed at the end of the study. […]

For series [2], the system named is COMP (Cartilage Oligomeric Matrix Protein). Description: COMP final serum concentration, MIA-induced OA rats, weekly treatment. It counts as in vivo, Sprague Dawley rats. How it is done: (§6) As an experimental model of OA induction, one involving the intra-articular administration of MIA (monosodium iodoacetate) was used.
(§7) The rats were anesthetized by a gaseous mixture of isoflurane and oxygen, and maintained in a supine position. Once the infrapatellar ligament was identified by touch, a single intra-articular injection of monosodium iodoacetate (MIA) was performed in the right knee, after having shaved the skin of the area, while keeping the joint slightly flexed. The amount of MIA injected was equal to 1 mg dissolved in 50 μl of saline solution, having a pH of about 4.5, as measured just before administration. The joint of the left knee was instead injected with 50 μl of saline solution alone, and this represented the internal control.
(§8) The treatment involved 4 weekly administrations of sodium chlodronate, followed by one week of follow-up.
(§9) The study included 8 treatment groups, each consisting of 10 male Sprague Dawley rats, specifically five treatment groups consisting of OA rats, on which the chlodronate doses of 2, 10, 20, 30, and 40 mg/ml, corresponding to 0.1, 0.5, 1, 1.5, and 2 mg/rat, were tested, and the remaining three groups represented by untreated OA rats, operated but untreated Sham rats, and rats administered only with placebo at pH 4.5.
Considering that the presence of high concentrations of COMP in serum is an indication of the progression of osteoarthritic disease, the measurement of COMP (Cartilage Oligomeric Matrix Protein) final serum concentration is a measure of treatment efficacy.
In fact, COMP seems to play a fundamental role in the formation and structure of articular cartilage, as it has a regulatory function in assembling type II collagen fibers and, together with other matrix proteins, stabilizes the network of collagen fibers. During osteoarthritis, a greater amount of this protein was found in the blood, therefore a higher concentration of COMP in the serum corresponds to a more advanced stage of osteoarthritis degeneration.

The test system of the next series is Sprague Dawley rats. Description: Local tolerability of repeated intra-articular injections. Type of series: in vivo. As for the experimental part:
With the aim to determine also the maximum dosages of chlodronate administrable in a single intra-articular injection, the local tolerability of intra-articular injections of sodium chlodronate, after repeated administration in the right knee of male and female Sprague Dawley rats, was investigated in this study.
Groups consisting of 5 male rats and 5 female rats each were subjected to intra-articular administration of aqueous solutions comprising 4, 14 and 40 mg/ml of sodium chlodronate (corresponding to dosages of 0.2, 0.7, and 2 mg/rat).
Each animal received a total of 12 intra-articular injections of chlodronate or placebo, administered as 3 injections per week (on Monday, Wednesday, and Friday) for 4 consecutive weeks. For the high dose group and the control group, the relative control groups with the same numerosity as the main groups were also provided.
During the treatment period, the animals were regularly checked in relation to the increase in body mass, food intake, and general health conditions.
At the end of the study, hematological analyses, chemical-clinical analyses, urino-analysis, and necropsy were performed.

In series [3] the test system is OA rats (bilateral anterior cruciate ligament surgical resection). Description: Histomorphometric evaluation of the cartilage area, OA rats by anterior cruciate ligament resection, monthly treatment. Conditions: 4 monthly i.a. doses. Type of series: in vivo, Sprague Dawley rats. As for the experimental part: as §1, §2, §3, §4, §5
Histomorphometric quantitative measurements of the cartilage area were performed using Image-Pro Plus 4.1 software for windows (Media Cybernetics, Maryland, USA). […]

For the next series, the system named is OA rats (MIA model). Description: Difference in edema size between right and left knees, MIA-induced OA rats, weekly intra-articular treatment. Type of series: in vivo, Sprague Dawley rats. The note with it: 4 weekly i.a. administrations.
Excerpt: as §6
The IA injection of MIA creates a model of acute inflammation that allows the study of cartilage degradation and joint pain.
as §7, §8, §9
During the treatment period, the animals were regularly checked in relation to the increase in body mass, food intake, and general health conditions. Clinical and hematological analyses were performed at the end of the study. The difference between the size of the edema in the two inflamed knees for all the observation groups, the final serum concentration of CTX-I (C-telopeptide of type I collagen), as a marker of bone turnover, and the final serum concentration of CTX-II (C-telopeptide of type II collagen), as a marker of cartilage turnover were investigated.
The measurement of the difference in size of the right and left knee edema (indicated with D and expressed in mm) was performed on anesthetized rats, by using a digital caliper (Digi-max slide caliper W/LCD readout Sigma Aldrich).

Where [4] appears, read: 4, 14 and 40 mg/ml, 12 i.a. injections (3 per week, 4 weeks).
Where [5] appears, read: repeated intra-articular administration, rats.

SMILES strings stand for the structures.

Turning to `O=P([O-])(O)C(Cl)(Cl)P(=O)([O-])O.[Na+].[Na+]` [Sodium Chlodronate, sodium chlodronate], the entries for the “Mankin Index Mean Value ± SEM” value in series [1] (8 mg/ml (0.4 mg/rat)) and in series [1] (12 mg/ml (0.6 mg/rat)) were 4.9 ± 0.458 and 2.6 ± 0.618, respectively. Besides, the “COMP Value” came to 5.46 ng/mL in series [2] (2 mg/mL weekly i.a.); 5.52 ng/mL in series [2] (10 mg/mL weekly i.a.); 5.24 ng/mL in series [2] (20 mg/mL weekly i.a.); 4.9 ng/mL in series [2] (30 mg/mL weekly i.a.); 3.52 ng/mL in series [2] (40 mg/mL weekly i.a.). For the same molecule, the “hematological analyses with differential leucocyte count and urinary analyses” value with Sprague Dawley rats (setting [4]) is reported as “no alterations due to the treatment”. The necropsy examination entry in the series on Sprague Dawley rats (setting [4]) was “No abnormalities”. For the same molecule, the “body weight and food consumption” value in the series with Sprague Dawley rats (4, 14 and 40 mg/ml, 12 i.a. injections (3 per week, 4 weeks), all animals) was “normal”. Besides, in the series with Sprague Dawley rats (4, 14 and 40 mg/ml, 12 i.a. injections (3 per week, 4 weeks), male and female rats), the “mortality, behavioral or clinical changes related to the treatment” value is “neither mortality nor behavioral or clinical changes”. Further, the “renal effect / electrolyte serum concentration” value with Sprague Dawley rats (females, highest dose (40 mg/ml, 2 mg/rat), 12 i.a. injections) is on record as “slight renal suffering with an increase in electrolyte serum concentration”. Besides, in the series with Sprague Dawley rats (males, highest dose (40 mg/ml, 2 mg/rat), 12 i.a. injections), the “ALP and ALT values in serum (initial hepatic suffering)” value is “significant increase”. The “Maximum Tolerated Dose (MTD)” value in the series on Sprague Dawley rats (setting [5]) amounted to 40 mg/mL. For the same molecule, in the series on Sprague Dawley rats (setting [5]), the “NOAEL dose (No Observed Adverse Effect Level)” value worked out at 14 mg/mL. The “Cartilage Area Average Value ± SEM” value in series [3] (8 mg/ml (0.4 mg/rat)) is recorded as 486 ± 157.7; in series [3] (12 mg/ml (0.6 mg/rat)), 435 ± 125.9. Further, the “D, Mean Value (mm) ± SEM (difference in size of right and left knee edema)” value in the series with OA rats (MIA model) (2 mg/ml (0.1 mg/rat)) is recorded as 0.37 ± 0.067 mm; in the series with OA rats (MIA model) (10 mg/ml (0.5 mg/rat)), 0.28 ± 0.063 mm; in the series with OA rats (MIA model) (20 mg/ml (1 mg/rat)), 0.27 ± 0.047 mm; with OA rats (MIA model) (30 mg/ml (1.5 mg/rat)), 0.11 ± 0.043 mm; in the series with OA rats (MIA model) (40 mg/ml (2 mg/rat)), 0.28 ± 0.033 mm.
